From the supplement of paper PMC4862054

test system: CAL-51; assay: normalised viability (% of control), CellTiter-Blue; higher = more viable cells (100 = DMSO, 0 = benzethonium chloride kill control); conditions: incubation time: 72 h
Description: (§1)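 DSRT, CellTiter-Blue viability, 72 h incubation. Signal is normalised to DMSO and benzethonium chloride controls. Value is the normalised response at dose 1.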

Point of comparison: Cn1cnc2c(F)c(Nc3ccc(Br)cc3Cl)c(C(=O)NOCCO)cc21 [Selumetinib] (1 nM), normalised viability 113%. Against it:
- Nc1nc2[nH]cnc2c(=S)[nH]1 [Thioguanine] (1 nM) — lower, 104%

test system: CAL-120; assay: as above; conditions: incubation time: 72 h
Description: as §1

Point of comparison: Nc1nc2[nH]cnc2c(=S)[nH]1 [Thioguanine] (1 nM), normalised viability 97.5%. Against it:
- O=NN(CCCl)C(=O)NCCCl [Carmustine] (1 nM) — lower, 94.2%
- CC1=C2C[C@H]3[C@@H](CC=C4C[C@@H](O)CC[C@@]43C)[C@@H]2CC[C@]12O[C@@H]1C[C@H](C)CN[C@H]1[C@H]2C [Cyclopamine] (1 nM) — lower, 94%
- CC1(C)CNc2cc(NC(=O)c3cccnc3NCc3ccncc3)ccc21 [Motesanib] (1 nM) — lower, 79.6%
- CC[C@@H]1C(=O)OC[C@@H]1Cc1cncn1C [Pilocarpine] (4 nM) — higher, 100%
- CC(C)(C)c1cnc(CSc2cnc(NC(=O)C3CCNCC3)s2)o1 [SNS-032] (1 nM) — lower, 86.2%
- Cn1cnc2c(F)c(Nc3ccc(Br)cc3Cl)c(C(=O)NOCCO)cc21 [Selumetinib] (1 nM) — lower, 81%

test system: DU-4475; assay: as above; conditions: incubation time: 72 h
Description: as §1

Point of comparison: CC(C)(C)c1cnc(CSc2cnc(NC(=O)C3CCNCC3)s2)o1 [SNS-032] (1 nM), normalised viability 99%. Against it:
- O=NN(CCCl)C(=O)NCCCl [Carmustine] (1 nM) — higher, 120%
- CC1=C2C[C@H]3[C@@H](CC=C4C[C@@H](O)CC[C@@]43C)[C@@H]2CC[C@]12O[C@@H]1C[C@H](C)CN[C@H]1[C@H]2C [Cyclopamine] (1 nM) — higher, 120%
- CC1(C)CNc2cc(NC(=O)c3cccnc3NCc3ccncc3)ccc21 [Motesanib] (1 nM) — lower, 94.1%
- CC[C@@H]1C(=O)OC[C@@H]1Cc1cncn1C [Pilocarpine] (4 nM) — higher, 99.7%
- Cn1cnc2c(F)c(Nc3ccc(Br)cc3Cl)c(C(=O)NOCCO)cc21 [Selumetinib] (1 nM) — higher, 102%
- Nc1nc2[nH]cnc2c(=S)[nH]1 [Thioguanine] (1 nM) — higher, 105%

test system: Hs578T; assay: as above; conditions: incubation time: 72 h
Description: as §1

Point of comparison: O=NN(CCCl)C(=O)NCCCl [Carmustine] (1 nM), normalised viability 134%. Against it:
- CC1=C2C[C@H]3[C@@H](CC=C4C[C@@H](O)CC[C@@]43C)[C@@H]2CC[C@]12O[C@@H]1C[C@H](C)CN[C@H]1[C@H]2C [Cyclopamine] (1 nM) — lower, 121%
- CC1(C)CNc2cc(NC(=O)c3cccnc3NCc3ccncc3)ccc21 [Motesanib] (1 nM) — lower, 103%
- CC[C@@H]1C(=O)OC[C@@H]1Cc1cncn1C [Pilocarpine] (4 nM) — lower, 92.9%
- CC(C)(C)c1cnc(CSc2cnc(NC(=O)C3CCNCC3)s2)o1 [SNS-032] (1 nM) — lower, 104%
- Cn1cnc2c(F)c(Nc3ccc(Br)cc3Cl)c(C(=O)NOCCO)cc21 [Selumetinib] (1 nM) — lower, 107%
- Nc1nc2[nH]cnc2c(=S)[nH]1 [Thioguanine] (1 nM) — higher, 136%

test system: CAL-148; assay: as above; conditions: incubation time: 72 h
Description: as §1

Point of comparison: Cn1cnc2c(F)c(Nc3ccc(Br)cc3Cl)c(C(=O)NOCCO)cc21 [Selumetinib] (1 nM), normalised viability 107%. Against it:
- O=NN(CCCl)C(=O)NCCCl [Carmustine] (1 nM) — higher, 115%
- CC1=C2C[C@H]3[C@@H](CC=C4C[C@@H](O)CC[C@@]43C)[C@@H]2CC[C@]12O[C@@H]1C[C@H](C)CN[C@H]1[C@H]2C [Cyclopamine] (1 nM) — higher, 117%
- CC1(C)CNc2cc(NC(=O)c3cccnc3NCc3ccncc3)ccc21 [Motesanib] (1 nM) — lower, 96.5%
- CC[C@@H]1C(=O)OC[C@@H]1Cc1cncn1C [Pilocarpine] (4 nM) — higher, 108%
- CC(C)(C)c1cnc(CSc2cnc(NC(=O)C3CCNCC3)s2)o1 [SNS-032] (1 nM) — higher, 113%
- Nc1nc2[nH]cnc2c(=S)[nH]1 [Thioguanine] (1 nM) — the same, 107%

test system: MDA-MB-231; assay: as above; conditions: incubation time: 72 h
Description: as §1

Point of comparison: Nc1nc2[nH]cnc2c(=S)[nH]1 [Thioguanine] (1 nM), normalised viability 92.8%. Against it:
- O=NN(CCCl)C(=O)NCCCl [Carmustine] (1 nM) — higher, 133%
- CC1=C2C[C@H]3[C@@H](CC=C4C[C@@H](O)CC[C@@]43C)[C@@H]2CC[C@]12O[C@@H]1C[C@H](C)CN[C@H]1[C@H]2C [Cyclopamine] (1 nM) — higher, 100%
- CC1(C)CNc2cc(NC(=O)c3cccnc3NCc3ccncc3)ccc21 [Motesanib] (1 nM) — lower, 76.7%
- CC[C@@H]1C(=O)OC[C@@H]1Cc1cncn1C [Pilocarpine] (4 nM) — higher, 97.1%
- CC(C)(C)c1cnc(CSc2cnc(NC(=O)C3CCNCC3)s2)o1 [SNS-032] (1 nM) — higher, 97.7%
- Cn1cnc2c(F)c(Nc3ccc(Br)cc3Cl)c(C(=O)NOCCO)cc21 [Selumetinib] (1 nM) — lower, 89%

test system: BT-474; assay: as above; conditions: incubation time: 72 h
Description: as §1

Point of comparison: O=NN(CCCl)C(=O)NCCCl [Carmustine] (1 nM), normalised viability 87.5%. Against it:
- CC1=C2C[C@H]3[C@@H](CC=C4C[C@@H](O)CC[C@@]43C)[C@@H]2CC[C@]12O[C@@H]1C[C@H](C)CN[C@H]1[C@H]2C [Cyclopamine] (1 nM) — higher, 118%
- CC1(C)CNc2cc(NC(=O)c3cccnc3NCc3ccncc3)ccc21 [Motesanib] (1 nM) — higher, 96.6%
- CC[C@@H]1C(=O)OC[C@@H]1Cc1cncn1C [Pilocarpine] (4 nM) — lower, 74.9%
- CC(C)(C)c1cnc(CSc2cnc(NC(=O)C3CCNCC3)s2)o1 [SNS-032] (1 nM) — higher, 101%
- Cn1cnc2c(F)c(Nc3ccc(Br)cc3Cl)c(C(=O)NOCCO)cc21 [Selumetinib] (1 nM) — higher, 104%
- Nc1nc2[nH]cnc2c(=S)[nH]1 [Thioguanine] (1 nM) — higher, 100%

test system: MFM-223; assay: as above; conditions: incubation time: 72 h
Description: as §1

Point of comparison: CC1(C)CNc2cc(NC(=O)c3cccnc3NCc3ccncc3)ccc21 [Motesanib] (1 nM), normalised viability 77.8%. Against it:
- O=NN(CCCl)C(=O)NCCCl [Carmustine] (1 nM) — higher, 93.5%
- CC1=C2C[C@H]3[C@@H](CC=C4C[C@@H](O)CC[C@@]43C)[C@@H]2CC[C@]12O[C@@H]1C[C@H](C)CN[C@H]1[C@H]2C [Cyclopamine] (1 nM) — higher, 97.5%
- CC[C@@H]1C(=O)OC[C@@H]1Cc1cncn1C [Pilocarpine] (4 nM) — higher, 88.8%
- CC(C)(C)c1cnc(CSc2cnc(NC(=O)C3CCNCC3)s2)o1 [SNS-032] (1 nM) — higher, 93.1%
- Cn1cnc2c(F)c(Nc3ccc(Br)cc3Cl)c(C(=O)NOCCO)cc21 [Selumetinib] (1 nM) — higher, 83.6%
- Nc1nc2[nH]cnc2c(=S)[nH]1 [Thioguanine] (1 nM) — higher, 98.4%

test system: CAL-85-1; assay: as above; conditions: incubation time: 72 h
Description: as §1

Point of comparison: CC1=C2C[C@H]3[C@@H](CC=C4C[C@@H](O)CC[C@@]43C)[C@@H]2CC[C@]12O[C@@H]1C[C@H](C)CN[C@H]1[C@H]2C [Cyclopamine] (1 nM), normalised viability 94.5%. Against it:
- O=NN(CCCl)C(=O)NCCCl [Carmustine] (1 nM) — lower, 87.8%
- CC1(C)CNc2cc(NC(=O)c3cccnc3NCc3ccncc3)ccc21 [Motesanib] (1 nM) — lower, 75.9%
- CC[C@@H]1C(=O)OC[C@@H]1Cc1cncn1C [Pilocarpine] (4 nM) — higher, 96.3%
- CC(C)(C)c1cnc(CSc2cnc(NC(=O)C3CCNCC3)s2)o1 [SNS-032] (1 nM) — lower, 92.7%
- Cn1cnc2c(F)c(Nc3ccc(Br)cc3Cl)c(C(=O)NOCCO)cc21 [Selumetinib] (1 nM) — lower, 90.1%
- Nc1nc2[nH]cnc2c(=S)[nH]1 [Thioguanine] (1 nM) — higher, 98.1%

test system: SK-BR-3; assay: as above; conditions: incubation time: 72 h
Description: as §1

Point of comparison: CC1(C)CNc2cc(NC(=O)c3cccnc3NCc3ccncc3)ccc21 [Motesanib] (1 nM), normalised viability 82.2%. Against it:
- O=NN(CCCl)C(=O)NCCCl [Carmustine] (1 nM) — higher, 99.8%
- CC1=C2C[C@H]3[C@@H](CC=C4C[C@@H](O)CC[C@@]43C)[C@@H]2CC[C@]12O[C@@H]1C[C@H](C)CN[C@H]1[C@H]2C [Cyclopamine] (1 nM) — higher, 97.3%
- CC[C@@H]1C(=O)OC[C@@H]1Cc1cncn1C [Pilocarpine] (4 nM) — higher, 91.8%
- CC(C)(C)c1cnc(CSc2cnc(NC(=O)C3CCNCC3)s2)o1 [SNS-032] (1 nM) — higher, 101%
- Cn1cnc2c(F)c(Nc3ccc(Br)cc3Cl)c(C(=O)NOCCO)cc21 [Selumetinib] (1 nM) — higher, 94%
- Nc1nc2[nH]cnc2c(=S)[nH]1 [Thioguanine] (1 nM) — higher, 99.9%
